Source: patent publication US7396946B2, “Compound for treatment of external secretion disorders” (Sucampo AG, priority 1999, dated 2008)

Key:
normal rabbits = assay: Effect on whole tear secretion of normal rabbits (Schirmer's test, Test Example 1); format: in vivo, Male Japanese albino rabbits (Std:JW/CSK); conditions: for whole tear secretion: 30 μl/eye single instillation, 8 eyes
Procedure: Male Japanese albino rabbits (Std:JW/CSK) were used.
(2) Method of Administration
Ophthalmic solution comprising 0.001% of 13,14-dihydro-15-keto-16,16-difluoro-PGE1 as an active ingredient of the present invention was prepared and used as a test composition. As a control, the vehicle of said solution without the active ingredient was used.
Each of the compositions was instilled singly to eight eyes at the amount of 30 μl/eye. After the administration, the time course of the tear secretion change was examined according to the following method.
Before (0 hour) and 0.5, 2, 4, and 6 hours after the instillation, the whole tear secretion was determined.
Under no anesthetization, one edge of the Schirmer's test strip (Showa Yakuhin Kako Co., Ltd., Lot No. 70080) was inserted into the conjunctival sac of the each test animal. One minute after, the strip was removed and the length of the moisted part was read from the scale provided on the strip to determine the amount of whole tear secretion.

[1] = system: Rabbit Dry-eye Syndrome Model, which was Induced by Trigeminal Denervation; assay: Keratoepithelial lesion score in rabbit dry-eye syndrome model induced by trigeminal denervation (Test Example 2); format: in vivo, male Japanese albino rabbits (Std:JW/CSK); conditions: for Keratoepithelial lesion: score 0-4 by stained area (Table 2), 5 eyes
Procedure: Fifteen male Japanese albino rabbits (Std:JW/CSK) were used.
(2) Generating Rabbit Dry-eye Syndrome Model by Trigeminal Denervation.
Urethane (ALDRICH) was administered i.p. at the dose of 1 g/kg to the rabbits of which occipital hair had been shaved.
After disinfecting of the shaved area, midline incision of the skin was made from the frontal bone to the ear root, and the muscular tissue around the periosteum, temporal bone and manidibular articular process were detached. After the detachment, a hole of 2×1.5 cm in size was made in the bone from the parietal medial region to the temporal region by means of the bone drill (URAWA KOGYO Co., Ltd. MINITOR C-130) under the surgical microscope (KONAN CAMERA R&I Inc., PMO-50). Then, the dura was detached from the cranial bone while cotton bud was kept inserted between the temporal bone and the dura. After the detachment was made up to the cranial base, detachment was further made toward the medial border of the petrous part of temporal bone in the carnial cavity, to find the trigeminal nerve in the petrous part. Then, the dura of about 1 to 2 mm on the nasal side of the semilunar ganglion was incised. After the incision, the two branches of nerve fascicle, i.e. the first branch (ocular nerve) of the trigeminal nerve and the second branch (maxillary nerve) were pulled laterally and cut with corneoscleral scissors. Immediately after the operation, miosis of the ipsilateral eye was confirmed and then the cotton kept inserted was removed, and the skin at the head was closed with suture. After the operation, an antibiotic (MYCILLIN SQL® Meiji) was administered i.m. at the dose of 0.1 ml/kg.
The trigeminal denervation was made only on the left eye side, while on the right eye side, no trigeminal denervation nor sham operation was made.
(3) Method of Administration.
13,14-dihydro-15-keto-16,16-difluoro-PGE1 was used as an active ingredient of the present invention to prepare test eyedrops containing 0.0001% and 0.001% of the compound. As a control, the vehicle of the eyedrops without the active ingredient was used.
Each of the compositions was instilled to the eyes everyday at the volume of 30 μl/eye two times a day (at 10:00 and 18:00) for two weeks. Five eyes per each of the test groups and the control group were treated and then examined for the whole tear secretion, the basal tear secretion and the keratoepithelial lesion as follows.
iii) Keratoepithelial Lesion
Before the start of instillation (week 0) and 1, 2, and 3 weeks after the start, the keratoepithelial lesion was evaluated two hours after the first instillation on the day of examination.
Each animal was placed in a stainless steel fixator, and given instillation of 50 μl of the mixture of 1% rose bengal and 1% fluorescein to stain their keratoconjunctival epithelium.

rats (Crj:CD strain) = assay: Exaltation of salivation, saliva evaluated visually (Test Example 3); format: in vivo, Male and female rats (Crj:CD strain); conditions: 1 mg/kg orally once a day, 16 animals per group
Procedure: The effect of the composition of the present invention on salivary secretion was determined. (1) Test Animals Male and female rats (Crj:CD strain) were used. Each of the test and control groups contains 16 animals. (2) Method of Administration 13,14-dihydro-15-keto-16,16-difuloro-PGE1 was used as an active ingredient of the present invention to prepare test solution containing 0.2 mg/ml of the compound. 5 ml/kg of the solution (1 mg/kg of the compound) was forcedly administrated orally once a day. For the animals of control group, 5 ml/kg of the vehicle without the active ingredient was administrated once a day. The administration was continued for four weeks. (3) Examination The amount of the saliva of the test group and control group was evaluated visually everyday.

rats (SD strain) = assay: Exaltation of salivation, salivary weight on paper filter (Test Example 4); format: in vivo, Male rats (SD strain); conditions: 1.0 mg/kg orally once a day for 10 days
Procedure: The effect of the composition of the present invention on salivary secretion was determined. (1) Test Animals Male rats (SD strain) were used. Each of the test and control groups contains 8 animals. (2) Method of Administration 13,14-dihydro-15-keto-16,16-difuloro-PGE1 was used as an active ingredient of the present invention to prepare test solution containing 0.2 mg/ml of the compound. 5 ml/kg of the solution (1.0 mg/kg of the compound) was forcedly administrated orally once a day. For the animals f control group, 5 ml/kg of vehicle without the active ingredient was administrated once a day. The administration was continued for 10 days. (3) Examination The amount of the saliva of the test group and control group was measured one hour after the administration on 10th day. The edge of a paper filter (Schirmer's test strip, Showa Yakuhin Kako Co., Ltd.) was inserted between lower gingiva and mandibula. Three minutes after, the paper filter was removed and the weight of the saliva was calculated by the following formula. weight of saliva=(the weight of paper filter including saliva)−(weight of only paper filter) (4) Result

## CCCCC(F)(F)C(=O)CCC1C(O)CC(=O)C1CCCCCCC(=O)O (centres unmarked) [13,14-dihydro-15-keto-16,16-difluoro-PGE1]
Normal rabbits; 0.001% ophthalmic solution, 0.5 hr after
  whole tear secretion: 17.0 ± 0.5 mm/min.
Normal rabbits; 0.001% ophthalmic solution, 2 hr after
  whole tear secretion: 14.1 ± 0.5 mm/min.
Normal rabbits; 0.001% ophthalmic solution, 4 hr after
  whole tear secretion: 11.7 ± 0.6 mm/min.
Normal rabbits; 0.001% ophthalmic solution, 6 hr after
  whole tear secretion: 10.5 ± 1.0 mm/min.
Normal rabbits; 0.001% ophthalmic solution, versus control group
  amount of whole tear secretion (result in words): significant increase
Normal rabbits; after instillation of 0.001% ophthalmic solution, 30 μl/eye
  stimulating response, such as rubor in the front of the eye: No stimulating response
Normal rabbits; test group 0.001% ophthalmic solution, before the administration (baseline)
  whole tear secretion: 5.3 ± 0.2 mm/min.
[1]; 0.0001% eyedrops 30 μl/eye two times a day for two weeks, week 1
  Keratoepithelial lesion: 1.00 ± 0.27^[*^]++ score
[1]; 0.0001% eyedrops 30 μl/eye two times a day for two weeks, week 2
  Keratoepithelial lesion: 0.50 ± 0.16^[*^]++ score
[1]; 0.0001% eyedrops 30 μl/eye two times a day for two weeks, week 3
  Keratoepithelial lesion: 0.40 ± 0.19^#++ score
[1]; 0.001% eyedrops 30 μl/eye two times a day for two weeks, week 1
  Keratoepithelial lesion: 0.70 ± 0.34^++ score
[1]; 0.001% eyedrops 30 μl/eye two times a day for two weeks, week 2
  Keratoepithelial lesion: 0.10 ± 0.10^[++] score
[1]; 0.001% eyedrops 30 μl/eye two times a day for two weeks, week 3
  Keratoepithelial lesion: 0.10 ± 0.10^[##][++] score
[1]; dry-eye syndrome model animals, 0.0001% and 0.001% eyedrops
  keratoconjunctival lesion accompanied by the decrease of the tear secretion (result in words): improved
[1]; test group 0.0001% eyedrops, before administration (after operation, baseline)
  Keratoepithelial lesion: 3.00 ± 0.32^[**^] score
[1]; test group 0.001% eyedrops, before administration (after operation, baseline)
  Keratoepithelial lesion: 3.00 ± 0.32^[**^] score
Rats (Crj:CD strain); 10th day after the start of the administration
  rats in which exaltation of saliva was observed: 8 of 16
Rats (Crj:CD strain); subsequent to the 22nd day after the start
  rats showing salivary exaltation: 16 rats
Rats (SD strain); compared with the control group
  salivary secretion (result in words): significantly increased
Rats (SD strain); one hour after the administration on 10th day, paper filter 3 minutes, 8 animals
  Salivary weight (mean ± S.E.): 18.1 ± 5.6 mg
